In patent US5719128A, “Factor IIa inhibitors” (Akzo Nobel N.V., priority 1991, dated 1998):
Residues, ends and D or L forms follow the SMILES beside them.

Columns and labels:
Assay type in all cases: biochemical
[1] = target: human thrombin (Homo sapiens, UniProt P00734); test: Inhibition of human thrombin (aIIa), splitting of chromogenic substrate S 2238; settings: measured after 90 minutes, expressed as the molar concentration which inhibited the end absorbance by 50%
Description: (§1) The inhibition of human thrombin was investigated by continuously monitoring the splitting of the chromogenic substance S 2238 (N-D-Phe-L-pipecolyl-L-Arg-p-nitro-anilide 2 HCl) in the absence and in the presence of 3, 1, 0.3, 0.1 and 0.03 mM of the compound investigated. These measurements were performed with the help of a kinetic microtiter plate reader. From these measurements the end absorbances were calculated after 90 minutes. Based on these total scores, an IC50 of the various compounds investigated is expressed as the molar concentration which inhibited the end absorbance by 50%. IC50 values for aXa-activity were investigated in the same way by using the chromogenic substrate s2222 (N-benzoyl-Ile-Glu-(OCH3)Gly-Arg-pNa).

[2] = target: aXa (Homo sapiens, UniProt P00742); test: aXa-activity, chromogenic substrate s2222; settings: measured after 90 minutes, expressed as molar concentration
Chain of aXa (P00742 41-179 limits assumed): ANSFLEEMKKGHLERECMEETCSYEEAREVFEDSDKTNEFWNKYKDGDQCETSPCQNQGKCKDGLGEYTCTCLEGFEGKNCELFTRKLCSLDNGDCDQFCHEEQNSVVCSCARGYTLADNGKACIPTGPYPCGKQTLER
Chain of aXa (P00742 235-488 limits assumed): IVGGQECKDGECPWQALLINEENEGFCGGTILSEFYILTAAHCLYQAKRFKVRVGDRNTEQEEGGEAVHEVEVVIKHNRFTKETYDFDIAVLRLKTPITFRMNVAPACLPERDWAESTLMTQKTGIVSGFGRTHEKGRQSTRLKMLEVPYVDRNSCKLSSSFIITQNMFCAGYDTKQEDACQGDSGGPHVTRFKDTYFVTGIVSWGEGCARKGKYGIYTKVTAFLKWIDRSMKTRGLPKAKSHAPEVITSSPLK
Description: as §1

[3] = target: T1, Factor IIa (Homo sapiens, UniProt P00734); test: Ki against Factor IIa; settings: called minimum inhibitory concentrations
T1 construct: Ki [M]-Factor IIa

SMILES | IC50 [1] [µM] | IC50 [2] [mM] | Ki [3] [µM]
N=C(N)NCCC[C@H](NC(=O)[C@@H]1CCCN1C(=O)[C@H](N)Cc1ccccc1)C(=O)NCC(=O)N[C@@H](Cc1ccccc1)C(=O)O [H-D-Phe-Pro-Arg-Gly-Phe-OH] (HELM PEPTIDE1{[dF].P.R.G.F}$$$$V2.0) | 410 | 1.3 | 7.6
N=C(N)NCCC[C@H](NC(=O)[C@@H]1CCCN1C(=O)[C@H](N)Cc1ccccc1)C(=O)NCC(=O)O [H-D-Phe-Pro-Arg-Gly-OH, reference compound] (HELM PEPTIDE1{[dF].P.R.G}$$$$V2.0) | 4000 | 4.8 | 70
N=C(N)NCCC[C@H](NC(=O)[C@@H]1CCCN1C(=O)[C@H](N)Cc1ccccc1)C(=O)NCC(=O)N[C@@H](Cc1ccccc1)C(=O)N[C@@H](CCCCN)C(=O)O [H-D-Phe-Pro-Arg-Gly-Phe-Lys-OH] (HELM PEPTIDE1{[dF].P.R.G.F.K}$$$$V2.0) | 250 | 1.6 | 3.4
C[C@H](NC(=O)[C@H](CCCNC(=N)N)NC(=O)[C@@H]1CCCN1C(=O)[C@H](N)Cc1ccccc1)C(=O)N[C@@H](Cc1ccccc1)C(=O)N[C@@H](CCCCN)C(=O)O [H-D-Phe-Pro-Arg-Ala-Phe-Lys-OH] (HELM PEPTIDE1{[dF].P.R.A.F.K}$$$$V2.0) | 110 | 3.1 | –
N=C(N)NCCC[C@H](NC(=O)[C@@H]1CCCN1C(=O)[C@H](N)Cc1ccccc1)C(=O)CCC(=O)O [H-D-Phe-Pro-Arg-psi[COCH2 ]-Gly-OH] | – | – | 26
NCCCC[C@H](NC(=O)[C@H](Cc1ccccc1)NC(=O)CCC(=O)[C@H](CCCN=C(N)N)NC(=O)[C@@H]1CCCN1C(=O)[C@H](N)Cc1ccccc1)C(=O)O [H-D-Phe-Pro-Arg-psi[COCH2 ]-Gly-Phe-Lys-OH] (HELM PEPTIDE1{[dF].P.[N=C(N)NCCC[C@H](N[*:1])C(=O)CCC(=O)[*:2]].F.K}$$$$V2.0) | – | – | 0.028
N=C(N)NCCC[C@H](NC(=O)[C@@H]1CCCN1C(=O)[C@H](N)Cc1ccccc1)C(=O)CCC(=O)N[C@@H](Cc1ccccc1)C(=O)O [H-D-Phe-Pro-Arg-psi[COCH2 ]-Gly-Phe-OH] | 37 | 2.1 | 0.48
